# Patent US6569451B1, “Targeted polymerized liposome diagnostic and treatment agents” (Targesome, Inc., priority 1994, dated 2003)
# Tests used:
# [1] = rat, in vivo; cited from earlier work
# [2] = Magnetic resonance relaxivity (R1, R2) of paramagnetic polymerized liposomes; assay type: physicochemical
# From the text: We have constructed paramagnetic polymerized liposomes using the above techniques with 2.5 to 100 mol % of the gadolinium chelated diamide shown in FIG. 4, with the polyethylene glycol linker m=1 and m=2, and sizes ranging from 30 nm to 200 nm in diameter. We have determined the maximum T1 relaxivity, showing the best contrast, is obtained with 15% gadolinium chelated diamide and 85% DAPC with m=2 and having 200 nm particle size. High relaxivity is also observed with 30% gadolinium chelated diamide and 70% PDA with m=1 and having a variable particle size of about 10 to about 200 nm.
# Similar measurements were made using PDA liposomes as the matrix lipid and the gadolinium chelated diamide (m=1).
compound,measurement,setting,value
"O=C([O-])CN(CCN(CC(=O)[O-])CC(=O)O)CCN(CC(=O)[O-])CC(=O)O.[Gd+3] [Gd (DTPA), gadolinium diethylenetriaminepentaacetic acid]",elimination from the blood pool,[1],within a few minutes
same,molar relaxivity per Gd^+3 ion,[2],4.2 mM⁻¹ s⁻¹
same,R1,"[2]; DAPC matrix lipid, gadolinium-diamide %, linker m and size as in label",4.4 s⁻¹ mM⁻¹
